molecular target: Coagulation Factor XIa protease (Homo sapiens (Human), UniProt P03951); experiment: Inhibition of Factor XIa detected by absorption photometry; assay type: biochemical; settings: absorbance at 405 nm, 10 minutes at 37° C.
Method: Test Example 1: Biological Activity of the Compounds of the Present Invention on
The Inhibition of Factor XIa Detected by Absorption Photometry
1. Experimental Materials
Enzyme: Coagulation Factor XIa protease (Abcam, Art. No ab62411)
Substrate: Coagulation Factor XIa specific substrate (HYPHEN1310 med, Art. No. Biophen cs-21(66))
2. Experimental Procedure
20 mM of test compound dissolved in 100% DMSO was diluted to 200, 20, 2, 0.2, 0.02, 0.002 μM with 100% DMSO; 1 μl of the compound was added to each well in a 384-well plate, blank and control wells were replaced with DMSO. The plate was centrifuged to remove the compound to the bottom. 10 μl (2.5 μg/ml) of FXIa enzyme solution was added to each well, and 10 μl of buffer was added to the blank well. The plate was centrifuged to remove the enzyme solution to the bottom.
Finally, 10 μl of 2 mM substrate were added to each well, and the plate was centrifuged to remove the substrate solution to the bottom.
The plate was incubated for 10 minutes at 37° C.; and then the absorbance was measured at 405 nm.

Coagulation Factor XIa protease, sequence (P03951 388-625): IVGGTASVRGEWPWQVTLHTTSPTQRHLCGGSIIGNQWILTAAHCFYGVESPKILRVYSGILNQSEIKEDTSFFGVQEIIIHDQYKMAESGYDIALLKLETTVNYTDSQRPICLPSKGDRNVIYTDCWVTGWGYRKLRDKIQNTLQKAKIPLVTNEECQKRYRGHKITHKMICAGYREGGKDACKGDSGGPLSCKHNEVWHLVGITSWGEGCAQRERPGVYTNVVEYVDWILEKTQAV
Coagulation Factor XIa protease, sequence (P03951 19-387 partner): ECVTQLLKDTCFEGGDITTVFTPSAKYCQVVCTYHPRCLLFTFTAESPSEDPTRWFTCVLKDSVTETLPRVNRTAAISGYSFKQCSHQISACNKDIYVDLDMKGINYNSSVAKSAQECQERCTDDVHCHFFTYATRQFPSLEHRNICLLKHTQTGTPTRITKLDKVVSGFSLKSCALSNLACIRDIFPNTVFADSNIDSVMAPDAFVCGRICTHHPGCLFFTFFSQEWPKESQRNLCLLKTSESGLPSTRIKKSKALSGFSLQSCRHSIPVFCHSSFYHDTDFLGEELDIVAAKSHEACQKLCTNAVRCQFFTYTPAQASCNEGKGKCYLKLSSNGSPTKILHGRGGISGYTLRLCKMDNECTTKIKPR

IC50	Structure (SMILES)
35 nM	COc1cn(C(Cc2cccc(C)c2)C(=O)Nc2ccc(C(=O)O)cc2)c(=O)cc1-c1cc(Cl)ccc1C(C)=O (centres unmarked) [Example 67, 4-(2-(4-(2-acetyl-5-chlorophenyl)-5-methoxy-2-oxopyridin-1(2H)-yl)-3-(m-tolyl)propan amido)benzoic acid]
47 nM	COc1cn(C(Cc2ccccc2F)C(=O)Nc2ccc(C(=O)O)cc2)c(=O)cc1-c1cc(Cl)ccc1C(C)=O (centres unmarked) [Example 68, 4-(2-(4-(2-acetyl-5-chlorophenyl)-5-methoxy-2-oxopyridin-1(2H)-yl)-3-(2-fluorophenyl)propanamido)benzoic acid]
49 nM	COc1cn(C(Cc2ccc(Cl)cc2)C(=O)Nc2ccc(C(=O)O)cc2)c(=O)cc1-c1cc(Cl)ccc1C(C)=O (centres unmarked) [Example 69, 4-(2-(4-(2-acetyl-5-chlorophenyl)-5-methoxy-2-oxopyridin-1 (2H)-yl)-3-(4-chlorophenyl)propanamido)benzoic acid]
54 nM	COc1cn(C(Cc2ccccc2Cl)C(=O)Nc2ccc(C(=O)O)cc2)c(=O)cc1-c1cc(Cl)ccc1C(C)=O (centres unmarked) [Example 70, 4-(2-(4-(2-acetyl-5-chlorophenyl)-5-methoxy-2-oxopyridin-1 (2H)-yl)-3-(2-chlorophenyl)propanamido)benzoic acid]
100 nM	COc1cn(C(Cc2ccc(C)cc2)C(=O)Nc2ccc(C(=O)O)cc2)c(=O)cc1-c1cc(Cl)ccc1C(C)=O (centres unmarked) [Example 74, 4-(2-(4-(2-acetyl-5-chlorophenyl)-5-methoxy-2-oxopyridin-1(2H)-yl)-3-(p-tolyl)propanamido)benzoic acid]
100 nM	COc1cn(C(Cc2ccc(NC(C)=O)cc2)C(=O)Nc2ccc(C(=O)O)cc2)c(=O)cc1-c1cc(Cl)ccc1C(C)=O (centres unmarked) [Example 75, 4-(3-(4-acetamidophenyl)-2-(4-(2-acetyl-5-chlorophenyl)-5-methoxy-2-oxopyridin-1(2H)-yl)propanamido)benzoic acid]
100 nM	COc1cn(C(Cc2c(Cl)cccc2Cl)C(=O)Nc2ccc(C(=O)O)cc2)c(=O)cc1-c1cc(Cl)ccc1C(C)=O (centres unmarked) [Example 76, 4-(2-(4-(2-acetyl-5-chlorophenyl)-5-methoxy-2-oxopyridin-1(2H)-yl)-3-(2,6-dichlorophenyl)propanamido)benzoic acid]
72 nM	COc1ccccc1CC(C(=O)Nc1ccc(C(=O)O)cc1)n1cc(OC)c(-c2cc(Cl)ccc2C(C)=O)cc1=O (centres unmarked) [Example 78, 4-(2-(4-(2-acetyl-5-chlorophenyl)-5-methoxy-2-oxopyridin-1(2H)-yl)-3-(2-methoxyphenyl)propanamido)benzoic acid]
45 nM	COc1cn(C(Cc2ccccn2)C(=O)Nc2ccc(C(=O)O)cc2)c(=O)cc1-c1cc(Cl)ccc1C(C)=O (centres unmarked) [Example 79, 4-(2-(4-(2-acetyl-5-chlorophenyl)-5-methoxy-2-oxopyridin-1(2H)-yl)-3-(pyridin-2-yl)propanamido)benzoic acid]
68 nM	COc1cn(C(Cc2cccnc2)C(=O)Nc2ccc(C(=O)O)cc2)c(=O)cc1-c1cc(Cl)ccc1C(C)=O (centres unmarked) [Example 82, 4-(2-(4-(2-acetyl-5-chlorophenyl)-5-methoxy-2-oxopyridin-1(2H)-yl)-3-(pyridin-3-yl)propanamido)benzoic acid]
> 10000 nM	COc1cn([C@H](Cc2cccnc2)C(=O)Nc2ccc(C(=O)O)cc2)c(=O)cc1-c1cc(Cl)ccc1C(C)=O [Example 83, (R)-4-(2-(4-(2-acetyl-5-chlorophenyl)-5-methoxy-2-oxopyridin-1 (2H)-yl)-3-(pyridin-3-yl)propanamido)benzoic acid]
99 nM	COc1cn(C(Cc2ccncc2)C(=O)Nc2ccc(C(=O)O)cc2)c(=O)cc1-c1cc(Cl)ccc1C(C)=O (centres unmarked) [Example 86, 4-(2-(4-(2-acetyl-5-chlorophenyl)-5-methoxy-2-oxopyridin-1(2H)-yl)-3-(pyridin-4-yl)propanamido)benzoic acid]
73 nM	COc1cn(C(Cc2ccccc2C#N)C(=O)Nc2ccc(C(=O)O)cc2)c(=O)cc1-c1cc(Cl)ccc1C(C)=O (centres unmarked) [Example 87, 4-(2-(4-(2-acetyl-5-chlorophenyl)-5-methoxy-2-oxopyridin-1(2H)-yl)-3-(2-cyanophenyl)propanamido)benzoic acid]
74 nM	COc1cn(C(Cc2cccc(C#N)c2)C(=O)Nc2ccc(C(=O)O)cc2)c(=O)cc1-c1cc(Cl)ccc1C(C)=O (centres unmarked) [Example 88, 4-(2-(4-(2-acetyl-5-chlorophenyl)-5-methoxy-2-oxopyridin-1(2H)-yl)-3-(3-cyanophenyl)propanamido)benzoic acid]
100 nM	COc1cn(C(Cc2ccc(C#N)cc2)C(=O)Nc2ccc(C(=O)O)cc2)c(=O)cc1-c1cc(Cl)ccc1C(C)=O (centres unmarked) [Example 90, 4-(2-(4-(2-acetyl-5-chlorophenyl)-5-methoxy-2-oxopyridin-1(2H)-yl)-3-(4-cyanophenyl)propanamido)benzoic acid]
7510 nM	COc1cn([C@H](Cc2ccn(C3CC3)n2)C(=O)Nc2ccc(C(=O)O)cc2)c(=O)cc1-c1cc(Cl)ccc1C(C)=O [Example 95, (R)-4-(2-(4-(2-acetyl-5-chlorophenyl)-5-methoxy-2-oxopyridin-(2H)-yl)-3-(1-cyclopropyl-1H-pyrazol-3-yl)propanamido)benzoic acid]
23 nM	COc1cn([C@@H](Cc2ccn(C)n2)C(=O)Nc2ccc(C(=O)O)cc2)c(=O)cc1-c1cc(Cl)ccc1C(C)=O [Example 101, (S)-4-(2-(4-(2-acetyl-5-chlorophenyl)-5-methoxy-2-oxopyridin-1(2H)-yl)-3-(1-methyl-1H-pyrazol-3-yl)propanamido)benzoic acid]
8210 nM	COc1cn([C@H](Cc2ccn(C)n2)C(=O)Nc2ccc(C(=O)O)cc2)c(=O)cc1-c1cc(Cl)ccc1C(C)=O [Example 102, (R)-4-(2-(4-(2-acetyl-5-chlorophenyl)-5-methoxy-2-oxopyridin-1(2H)-yl)-3-(1-methyl-1H-pyrazol-3-yl)propanamido)benzoic acid]
70 nM	COc1cn(C(Cc2cnn(C)c2)C(=O)Nc2ccc(C(=O)O)cc2)c(=O)cc1-c1cc(Cl)ccc1C(C)=O (centres unmarked) [Example 103, 4-(2-(4-(2-acetyl-5-chlorophenyl)-5-methoxy-2-oxopyridin-1(2H)-yl)-3-(1-methyl-1H-pyrazol-4-yl)propanamido)benzoic acid]

Structure (SMILES)	IC50
COc1cn(C(CCOC(C)(C)C)C(=O)Nc2ccc(C(=O)O)cc2)c(=O)cc1-c1cc(Cl)ccc1C(C)=O (centres unmarked) [Example 110, 4-(2-(4-(2-acetyl-5-chlorophenyl)-5-methoxy-2-oxopyridin-1(2H)-yl)-4-(tert-butoxy)butanamido)benzoic acid]	53 nM
CCC(=O)c1ccc(Cl)cc1-c1cc(=O)n(C(CCOC(C)(C)C)C(=O)Nc2ccc3nccnc3c2)cc1OC (centres unmarked) [Example 113, 4-(tert-butoxy)-2-(4-(5-chloro-2-propionylphenyl)-5-methoxy-2-oxopyridin-(2H)-yl)-N-(quinoxalin-6-yl)butanamide]	33 nM
CCC(=O)c1ccc(Cl)cc1-c1cc(=O)n([C@H](CCOC(C)(C)C)C(=O)Nc2ccc3nccnc3c2)cc1OC [Example 115, (R)-4-(tert-butoxy)-2-(4-(5-chloro-2-propionylphenyl)-5-methoxy-2-oxopyridin-1(2H)-yl)-N-(quinoxalin-6-yl)butanamide]	> 10000 nM
CCC(=O)c1ccc(Cl)cc1-c1cc(=O)n(C(CCOC(C)(C)C)C(=O)Nc2ccc3[nH]c(C(=O)O)cc3c2)cc1OC (centres unmarked) [Example 119, 5-(4-(tert-butoxy)-2-(4-(5-chloro-2-propionylphenyl)-5-methoxy-2-oxopyridin-1(2H)-yl)butanamido)-1H-indole-2-carboxylic acid]	45 nM
COc1cn(C(CCOC(C)(C)C)C(=O)Nc2ccc(C(=O)O)cc2)c(=O)cc1-c1c(C(C)=O)ccc(Cl)c1F (centres unmarked) [Example 120, 44-(2-(4-(6-acetyl-3-chloro-2-fluorophenyl)-5-methoxy-2-oxopyridin-1(2H)-yl)-4-(tert-butoxy)butanamido)benzoic acid]	49 nM
CCC(=O)c1ccc(Cl)cc1-c1cc(=O)n(C(CCOC(C)(C)C)C(=O)Nc2ccc3ncncc3c2)cc1OC (centres unmarked) [Example 121, 4-(tert-butoxy)-2-(4-(5-chloro-2-propionylphenyl)-5-methoxy-2-oxopyridin-1(2H)-yl)-N-(quinazolin-6-yl)butanamide]	67 nM
COc1cn([C@@H](CCOC(C)(C)C)C(=O)Nc2ccc(C(N)=O)cc2)c(=O)cc1-c1cc(Cl)ccc1C(C)=O [Example 122, (S)-4-(2-(4-(2-acetyl-5-chlorophenyl)-5-methoxy-2-oxopyridin-1(2H)-yl)-4-(tert-butoxy)butanamido)benzamide]	100 nM
CNC(=O)c1ccc(NC(=O)[C@H](CCOC(C)(C)C)n2cc(OC)c(-c3cc(Cl)ccc3C(C)=O)cc2=O)cc1 [Example 123, (S)-4-(2-(4-(2-acetyl-5-chlorophenyl)-5-methoxy-2-oxopyridin-1(2H)-yl)-4-(tert-butoxy)butanamido)-N-methylbenzamide]	100 nM
CCC(=O)c1ccc(Cl)cc1-c1cc(=O)n(C(CCOC(C)(C)C)C(=O)Nc2ccc3nc(C)c(C)nc3c2)cc1OC (centres unmarked) [Example 124, 4-(tert-butoxy)-2-(4-(5-chloro-2-propionylphenyl)-5-methoxy-2-oxopyridin-(2H)-yl)-N-(2,3-dimethylquinoxalin-6-yl)butanamide]	100 nM
CCC(=O)c1ccc(Cl)cc1-c1cc(=O)n(C(CCOC(C)(C)C)C(=O)Nc2ccc3nn(C)cc3c2)cc1OC (centres unmarked) [Example 141]	66 nM

From US10633375B2, “Oxopicolinamide derivative, preparation method therefor and pharmaceutical use thereof” (Jiangsu Hengrui Medicine Co., Ltd., priority 2016, dated 2020)
